Consider ten compounds from ChEMBL document CHEMBL1125860 (J Med Chem, 1991).

Calls of active or inactive are those of the source. The rule behind the calls is not given here.

Assay [1] concerns Rattus norvegicus. Briefly: In vivo inhibition of galactitol accumulation in sciatic nerves of rat at 25 mg/kg/day; Not significant. The class given is functional, organism-based. The note with it: Sciatic nerve.
The subject of assay [2] is Rattus norvegicus. Briefly: In vivo inhibition of galactitol accumulation in diaphragm of rat at 25 mg/kg/day; […]. The class given is functional, organism-based.
The target of assay [3] is Aldo-keto reductase family 1 member B1 (Bos taurus) (UniProt P16116). Briefly: In vitro % decrease of aldose reductase was measured in isolated partially purified bovine lens preparations at 10e-7 M concentration; Not active.
Assay [4] has as its system Rattus norvegicus. Briefly: In vivo inhibition of galactitol accumulation in sciatic nerves of rat at 24 mg/kg/day. The note with it: Sciatic nerve. The class given is functional.
The species named for assay [5] is Rattus norvegicus. Briefly: (§1) In vitro inhibition of sorbitol accumulation was measured in rat sciatic nerves incubated in the presence of 50 mM glucose at 10e-6 M concentration. The class given is functional, Sciatic nerve.
For assay [6], the system named is Rattus norvegicus. Briefly: In vivo inhibition of galactitol accumulation in diaphragm of rat at 24 mg/kg/day. The class given is functional.
For assay [7], the species on record is Rattus norvegicus. Briefly: (§2) In vitro inhibition of sorbitol accumulation was measured in rat sciatic nerves incubated in the presence of 50 mM glucose at 10e-5 M concentration. The class given is functional, Sciatic nerve.
Assay [8] concerns Rattus norvegicus. Briefly: In vivo inhibition of galactitol accumulation in sciatic nerves of rat at 50 mg/kg/day. The class given is functional. Particulars: Sciatic nerve.
For assay [9], the system named is Rattus norvegicus. Briefly: In vivo inhibition of galactitol accumulation in diaphragm of rat at 50 mg/kg. The class given is functional.
In assay [10] the target is Aldo-keto reductase family 1 member B1 (Bos taurus) (UniProt P16116). Briefly: In vitro % decrease of aldose reductase measured in isolated partially purified bovine lens preparations at 10e-7 M concentration.
The test system of assay [11] is Rattus norvegicus. Briefly: In vivo inhibition of galactitol accumulation in diaphragm of rat at 43 mg/kg/day; Not significant. The class given is functional, organism-based.
The subject of assay [12] is Rattus norvegicus. Briefly: In vivo inhibition of galactitol accumulation in sciatic nerves of rat at 43 mg/kg/day; Not significant. The class given is functional, organism-based. Particulars: Sciatic nerve.
For assay [13], the system named is Rattus norvegicus. Briefly: In vivo inhibition of galactitol accumulation in diaphragm of rat at 5 mg/kg/day. The class given is functional.
In assay [14] the test system is Rattus norvegicus. Briefly: In vivo inhibition of galactitol accumulation in sciatic nerves of rat at 5 mg/kg/day; Not significant. The class given is functional, organism-based. Particulars: Sciatic nerve.
The test system of assay [15] is Rattus norvegicus. Briefly: In vivo inhibition of galactitol accumulation in diaphragm of rat at 10 mg/kg/day. The class given is functional.
The subject of assay [16] is Rattus norvegicus. Briefly: In vivo inhibition of galactitol accumulation in sciatic nerves of rat at 10 mg/kg/day. The class given is functional. The note with it: Sciatic nerve.
The subject of assay [17] is Rattus norvegicus. Briefly: In vivo inhibition of galactitol accumulation in diaphragm of rat at 65 mg/kg/day. The class given is functional.
For assay [18], the system named is Rattus norvegicus. Briefly: In vivo inhibition of galactitol accumulation in sciatic nerves of rat at 65 mg/kg/day; Not significant. The class given is functional, organism-based. The note with it: Sciatic nerve.
For assay [19], the system named is Rattus norvegicus. Briefly: In vivo inhibition of galactitol accumulation in sciatic nerves of rat at 25 mg/kg/day. The note with it: Sciatic nerve. The class given is functional.
For assay [20], the system named is Rattus norvegicus. Briefly: In vivo inhibition of galactitol accumulation in sciatic nerves of rat at 18 mg/kg. Particulars: Sciatic nerve. The class given is functional.
In assay [21] the test system is Rattus norvegicus. Briefly: In vivo inhibition of galactitol accumulation in diaphragm of rat at 18 mg/kg/day. The class given is functional.
Assay [22] relates to Rattus norvegicus. Briefly: In vivo inhibition of galactitol accumulation in diaphragm of rat at 25 mg/kg/day. The class given is functional.
For assay [23], the species on record is Rattus norvegicus. Briefly: Inhibition of galactitol accumulation in rat RBC incubated in presence of 50 mM glucose. The class given is functional, organism-based.
In assay [24] the test system is Rattus norvegicus. Briefly: In vivo inhibition of galactitol accumulation in sciatic nerves of rat at 5 mg/kg/day. The class given is functional. Particulars: Sciatic nerve.
The species named for assay [25] is Rattus norvegicus. Briefly: Inhibition of galactitol accumulation in sciatic nerves of rat incubated in presence of 50 mM glucose. The class given is functional, organism-based. Particulars: Sciatic nerve.
Assay [26] is filed under the species Rattus norvegicus. Briefly: Inhibition of aldose reductase activity was measured by measuring […] in the sciatic nerves of galactose fed rat. The class given is functional. The note with it: Sciatic nerve.
For assay [27], the species on record is Rattus norvegicus. Briefly: Inhibition of aldose reductase activity was measured by measuring […] in the RBC of galactose fed rat. The class given is functional.
The target of assay [28] is T1, Aldo-keto reductase family 1 member B1 (Bos taurus, UniProt P16116). Briefly: Inhibition of aldose reductase activity was measured on partially purified bovine lens preparations incubated in presence of 50 mM glucose.
The species entered for assay [29] is Rattus norvegicus. Briefly: Inhibition of aldose reductase activity was measured by measuring sorbitor accumulation in the sciatic nerves of STZ diabetic rat. The class given is functional. The note with it: Sciatic nerve.
The species named for assay [30] is Rattus norvegicus. Briefly: Inhibition of galactitol accumulation in rat lens incubated in presence of 50 mM glucose. The class given is functional, organism-based. Particulars: Lens of camera-type eye.
Assay [31] concerns Rattus norvegicus. Briefly: In vivo inhibition of galactitol accumulation in diaphragm of rat at 15 mg/kg/day. The class given is functional.
For assay [32], the system named is Rattus norvegicus. Briefly: In vivo inhibition of galactitol accumulation in sciatic nerves of rat at 15 mg/kg/day. The class given is functional. The note with it: Sciatic nerve.
Assay [33] deals with Rattus norvegicus. Briefly: In vivo inhibition of galactitol accumulation in diaphragm of rat at 49 mg/kg/day. The class given is functional.
Assay [34] deals with Rattus norvegicus. Briefly: In vivo inhibition of galactitol accumulation in sciatic nerves of rat at 49 mg/kg/day; Not significant. Particulars: Sciatic nerve. The class given is functional, organism-based.
The species named for assay [35] is Rattus norvegicus. The description is as §2. The class given is functional. Particulars: Sciatic nerve.
In assay [36] the test system is Rattus norvegicus. Briefly: Effective dose of aldose reductase was evaluated by measuring galactitol accumulation in sciatic nerves of rat at 5 mg/kg/day. The class given is functional. The note with it: Sciatic nerve.
The species entered for assay [37] is Rattus norvegicus. The description is as §1. The class given is functional. The note with it: Sciatic nerve.
The species entered for assay [38] is Rattus norvegicus. Briefly: % inhibition of aldose reductase was measured in rat serbital sciatic nerves incubated in the presence of 50 mM glucose at 10e-6 M concentration. The class given is functional, Sciatic nerve.
Assay [39] addresses T1, Aldo-keto reductase family 1 member B1. Briefly: In vitro Inhibition of aldose reductase was measured in isolated partially purified bovine lens preparations at 10e-7 M concentration.

A word on the inhibition: it is the change of the read-out against control, counted positive when it falls. As to `COc1ccc2c(C(=O)N(C)CC(N)=O)c(OCC(F)(F)F)ccc2c1C(F)(F)F`, the inhibition result in [1], in assay [2] and in assay [3] was “inactive” each time.

One may read the inhibition in vivo as the share of the control response that was lost under treatment. A higher inhibition in vivo goes with strong suppression. A word on the Inhibition: it is the drop in the measured response relative to a control, in per cent. On to `COc1ccc2c(C(=O)N(C)CC(=O)O)c(OCC(F)(F)F)ccc2c1C(F)(F)F`, for which the inhibition in vivo at 24 mg/kg/day was determined as 37% in assay [4] and 65% in assay [6]. For the same compound, the Inhibition in [5] was 31%; in [7] it was 57%. In assay [8], this compound came in with an inhibition in vivo at 50 mg/kg/day of 79%. This compound gave an inhibition in vivo at 50 mg/kg in assay [9] of 82%. The same compound yielded an inhibition in [10] of 67%.

In the case of `CCOC(=O)N(CC(=O)O)C(=O)c1c(Br)ccc2c(C(F)(F)F)c(OC)ccc12`, the inhibition result in assay [11] and in assay [12] was “inactive” in each case. The Inhibition in assay [5] is listed as 52%; in [7], 73%. For the same compound, the inhibition in [10] stood at 76%.

Compound `O=C(O)Cc1nn(Cc2nc3cc(C(F)(F)F)ccc3s2)c(=O)c2ccccc12` [ZOPOLRESTAT] gave an inhibition in vivo at 5 mg/kg/day in [13] of 88%. Moreover, the inhibition entry in assay [14] is “inactive”. The inhibition in vivo at 10 mg/kg/day in assay [15] was 80%; in [16], 70%. In assay [10], this compound had an inhibition of 89%.

`COc1ccc2c(C(=O)N(C)CC(=O)O)c(OCc3ccccc3)ccc2c1C(F)(F)F` displayed an inhibition in vivo at 65 mg/kg/day in assay [17] of 23%. Also, the inhibition entry in assay [18] is “inactive”. In addition, the inhibition in assay [10] stood at 73%.

Regarding `COc1ccc2c(C(=S)N(C)CC(=O)O)cccc2c1Br`, the inhibition in vivo at 25 mg/kg/day in assay [19] was 64%; in assay [22], 90%. The compound further returned an inhibition in vivo at 18 mg/kg in [20] of 39%. For the same compound, in assay [21], the inhibition in vivo at 18 mg/kg/day was 88%. The compound further registered an inhibition in assay [10] of 72%.

Usually IC50 stands for the midpoint of a concentration-inhibition curve. By ED50 is commonly meant the midpoint of the dose-response relation. Read a high ED50 as a need for a large dose. In the case of `COC(=O)N(CC(=O)O)C(=O)c1c(F)ccc2c(C(F)(F)F)c(OC)ccc12`, the inhibition in vivo at 5 mg/kg/day came out at 52% in [13] and 50% in [24]. Besides, the IC50 in assay [23] amounted to 19 nM; in assay [25], 2800 nM; in [28], 25 nM; in [30], 340 nM. For the same compound, the Inhibition is 36% in [5] and 61% in assay [7]. Also, the ED50 amounted to 4.8 mg/kg in [26], 3.5 mg/kg in assay [27] and 4 mg/kg in assay [29]. Further, the figures for the inhibition in vivo at 10 mg/kg/day in assay [15] and in assay [16] were 62% and 61%, respectively. In addition, in [10], the inhibition was found to be 86%.

Consider `CCOC(=O)N(CC(=O)O)C(=O)c1c(F)ccc2c(C(F)(F)F)c(OC)ccc12`, for which the values for the inhibition in vivo at 15 mg/kg/day in assay [31] and in [32] were 59% and 55%, respectively. Also, the inhibition in vivo at 25 mg/kg/day in assay [19] worked out at 70%; in [22], 65%. Besides, the Inhibition turned out to be 51% in [5] and 75% in [7]. Besides, in assay [10], the inhibition was determined as 87%.

Regarding `CCCCOc1ccc2c(C(F)(F)F)c(OC)ccc2c1C(=O)N(C)CC(=O)O`, the inhibition in vivo at 49 mg/kg/day in assay [33] was 55%. In addition, the inhibition entry in [34] was “inactive”. This compound also had an inhibition in assay [10] of 42%.

Turning to `O=C(O)Cc1nn(Cc2ccc(Br)cc2F)c(=O)c2ccccc12` [PONALRESTAT], the concentration for half-maximal inhibition (IC50) amounted to 1400 nM in assay [35], 37 nM in assay [37] and 37 nM in [39]. The values for the inhibition in vivo at 5 mg/kg/day in assay [13] and in assay [24] were 63% and 61%, respectively. The compound further returned an ED50 in [36] of 4 mg/kg. Further, the Inhibition in assay [7] stood at 100%; in assay [38], 35%.
